# Assay results reported in ChEMBL document CHEMBL5120749, “Human estrogen receptor α antagonists, part 2: Synthesis driven by rational design, in vitro antiproliferative, and in vivo anticancer evaluation of innovative coumarin-related antiestrogens as breast cancer suppressants” (Eur J Med Chem, 2022).
# pIC50: −log10 of the molar value.
# Experiments:
# [1] = target: T1, Estrogen receptor (Homo sapiens, UniProt P03372)
# T1 sequence (P03372 whole entry): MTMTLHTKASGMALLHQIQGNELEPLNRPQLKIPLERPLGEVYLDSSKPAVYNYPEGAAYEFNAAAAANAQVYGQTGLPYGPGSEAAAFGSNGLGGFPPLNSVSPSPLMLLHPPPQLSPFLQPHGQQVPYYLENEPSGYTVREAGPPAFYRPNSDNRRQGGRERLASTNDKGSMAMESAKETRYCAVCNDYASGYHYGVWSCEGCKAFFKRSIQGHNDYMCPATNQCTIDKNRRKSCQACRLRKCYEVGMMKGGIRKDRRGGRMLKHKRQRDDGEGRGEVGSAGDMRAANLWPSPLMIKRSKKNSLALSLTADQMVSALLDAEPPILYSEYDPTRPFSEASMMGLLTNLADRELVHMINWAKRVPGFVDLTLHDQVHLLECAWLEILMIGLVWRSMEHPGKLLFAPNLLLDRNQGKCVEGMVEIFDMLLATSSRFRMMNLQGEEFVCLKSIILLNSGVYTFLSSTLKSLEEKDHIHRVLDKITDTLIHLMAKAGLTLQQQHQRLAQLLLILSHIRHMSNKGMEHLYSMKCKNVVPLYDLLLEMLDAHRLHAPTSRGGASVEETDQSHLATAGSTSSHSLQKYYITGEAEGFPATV
# Description: (§1) Antagonist activity at ERalpha (unknown origin)
# [2] = target: T2, Estrogen receptor beta (Homo sapiens, UniProt Q92731)
# Description: (§2) Antagonist activity at ERbeta (unknown origin)
# [3] = target: T3, Estrogen receptor (Homo sapiens) (UniProt P03372); settings: filed as antagonist
# T3 sequence (whole entry): T1 sequence (P03372 whole entry)
# Description: as §1
# [4] = target: T2, Estrogen receptor beta; settings: filed as antagonist
# Description: as §2
# [5] = target: T3, Estrogen receptor (Homo sapiens); settings: filed as antagonist; remark: listed apart in the source
# Description: Relative binding affinity to ERalpha (unknown origin)
# [6] = target: T2, Estrogen receptor beta; settings: filed as antagonist; remark: listed apart in the source
# Description: Relative binding affinity to ERbeta (unknown origin)
# [7] = target: T1, Estrogen receptor; remark: listed apart in the source
# Description: Antagonist activity at ERalpha in human MCF7 cells assessed as downregulation of ERalpha
# [8] = target: T4, Progesterone receptor (Homo sapiens, UniProt P06401)
# T4 sequence (P06401 whole entry): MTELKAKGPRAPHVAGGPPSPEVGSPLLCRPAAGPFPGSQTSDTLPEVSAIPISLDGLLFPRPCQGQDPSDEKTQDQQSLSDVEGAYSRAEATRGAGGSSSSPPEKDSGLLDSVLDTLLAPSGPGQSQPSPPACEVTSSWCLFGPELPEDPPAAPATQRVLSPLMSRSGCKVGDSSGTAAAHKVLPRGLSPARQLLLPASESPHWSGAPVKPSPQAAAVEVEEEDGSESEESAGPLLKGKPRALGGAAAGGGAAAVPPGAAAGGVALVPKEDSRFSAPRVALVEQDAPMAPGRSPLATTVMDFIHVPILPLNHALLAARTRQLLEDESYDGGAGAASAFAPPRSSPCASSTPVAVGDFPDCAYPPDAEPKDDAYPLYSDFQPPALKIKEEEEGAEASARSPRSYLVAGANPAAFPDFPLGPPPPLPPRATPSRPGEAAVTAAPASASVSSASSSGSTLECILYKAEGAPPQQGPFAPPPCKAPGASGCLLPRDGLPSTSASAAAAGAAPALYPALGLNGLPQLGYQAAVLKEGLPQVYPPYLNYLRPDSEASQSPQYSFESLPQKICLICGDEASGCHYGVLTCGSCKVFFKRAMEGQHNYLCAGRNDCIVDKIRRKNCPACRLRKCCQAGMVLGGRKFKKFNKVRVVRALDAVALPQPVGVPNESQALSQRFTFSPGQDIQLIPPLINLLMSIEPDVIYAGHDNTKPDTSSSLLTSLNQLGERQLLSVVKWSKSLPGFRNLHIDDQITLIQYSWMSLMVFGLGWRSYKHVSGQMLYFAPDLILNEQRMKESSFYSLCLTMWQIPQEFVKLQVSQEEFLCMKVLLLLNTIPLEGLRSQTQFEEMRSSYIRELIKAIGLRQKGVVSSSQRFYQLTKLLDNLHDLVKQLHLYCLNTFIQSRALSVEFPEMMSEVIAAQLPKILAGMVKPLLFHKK
# Description: Antagonist activity at progesterone receptor in human MCF7 cells
# [9] = tested on: MCF7; assay: cells; settings: Homo sapiens
# Description: Antiproliferative activity against human MCF7 cells
# [10] = tested on: MDA-MB-231; assay: cells; settings: Homo sapiens
# Description: Antiproliferative activity against human MDA-MB-231 cells
# [11] = tested on: MRC5; assay: cells; settings: Homo sapiens
# Description: Antiproliferative activity against human MRC5 cells
# [12] = tested on: Ishikawa; assay: cells; settings: Homo sapiens
# Description: Antiproliferative activity against human Ishikawa cells
# [13] = in vivo; settings: rat, po, 5 mg/kg
# [14] = in vivo; settings: rat, po, 50 mg/kg
# [15] = physchem; settings: octanol/water
# Description: (§3) Lipophilicity, logD of the compound by shake-flask method
# [16] = octanol/water
# Description: as §3
# T2 sequence (Q92731 whole entry): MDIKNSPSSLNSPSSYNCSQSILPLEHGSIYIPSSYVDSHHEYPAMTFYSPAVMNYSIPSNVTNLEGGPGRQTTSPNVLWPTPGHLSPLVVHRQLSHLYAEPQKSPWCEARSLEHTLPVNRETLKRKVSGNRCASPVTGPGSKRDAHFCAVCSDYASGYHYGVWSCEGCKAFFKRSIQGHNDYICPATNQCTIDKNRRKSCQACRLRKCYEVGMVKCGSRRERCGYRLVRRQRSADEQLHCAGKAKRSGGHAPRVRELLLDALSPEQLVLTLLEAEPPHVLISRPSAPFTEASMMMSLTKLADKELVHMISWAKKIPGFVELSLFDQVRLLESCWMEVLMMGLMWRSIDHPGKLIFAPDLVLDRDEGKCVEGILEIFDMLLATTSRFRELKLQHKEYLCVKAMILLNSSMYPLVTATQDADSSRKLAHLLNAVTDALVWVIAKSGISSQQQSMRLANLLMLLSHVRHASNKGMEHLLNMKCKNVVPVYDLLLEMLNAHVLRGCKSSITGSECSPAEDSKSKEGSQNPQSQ
Compound,pIC50 [1],pIC50 [2],Ka [3],Ka [4],log(RBA) [5],log(RBA) [6],pIC50 [7],pIC50 [8],pIC50 [9],pIC50 [10],pIC50 [11],pIC50 [12],bioavailability [13],bioavailability [14],logD [15],logD [16]
O=C(COCN1CCCCC1)CN1Nc2c(c(=O)oc3cc(O)ccc23)-c2ccc(O)cc21,6.43,7.43,84.3 nM,20.7 nM,-0.63,0.38,–,–,–,–,–,–,–,–,–,–
Cc1cc(C(=O)C2=C(c3ccc(O)cc3)COc3cc(O)ccc32)ccc1OCCN1C=Cc2cccnc2C1,8.98,–,–,–,–,–,< 7.00,< 7.00,–,–,–,–,–,–,–,–
Cc1cc(C(=O)CNc2c(-c3ccc(O)cc3)c(=O)oc3cc(O)ccc23)ccc1OCCN1CCC=C(C(=O)O)C1,9.72,6.99,0.04 nM,57.6 nM,2.67,-0.06,< 7.00,< 7.00,9.60,7.04,< 7.00,9.47,91%,96%,2.14,–
CNCCOc1ccc(N2Nc3c(c(=O)oc4cc(O)ccc34)-c3ccc(O)cc32)cc1,6.79,7.54,36.1 nM,16.2 nM,-0.26,0.49,–,–,–,–,–,–,–,–,–,–
O=C(COCN1CCCCC1)CN1Nc2cc(O)ccc2-c2c1c1ccc(O)cc1oc2=O,9.12,7.06,0.17 nM,48.5 nM,2.07,0.01,< 7.00,< 7.00,8.99,7.38,< 7.00,9.02,–,–,–,–
Nc1ccc(-c2c(C(=O)c3ccc(OCCN4CC(C(=O)O)=CCC4=O)cc3)c3ccc(O)cc3oc2=O)cc1,7.41,–,–,–,–,–,< 7.00,< 7.00,–,–,–,–,–,–,–,–
O=C(c1ccc(OCCN2C=Cc3ccccc3C2)cc1)c1c(-c2ccc(O)cc2)oc(=O)c2cc(O)ccc12,9.15,7.37,0.16 nM,24 nM,2.1,0.32,< 7.00,< 7.00,9.10,7.38,< 7.00,9.12,–,–,–,–
CNCCOc1ccc(N2Nc3cc(O)ccc3-c3c2c2ccc(O)cc2oc3=O)cc1,9.48,–,–,–,–,–,< 7.00,< 7.00,–,–,–,–,–,–,–,–
Cc1cc(C(=O)C2=C(c3ccc(O)cc3)COc3cc(O)ccc32)ccc1OCCN1Cc2cccnc2C1,8.95,–,–,–,–,–,< 7.00,< 7.00,–,–,–,–,–,–,–,–
CC/C(=C(\c1ccc(O)cc1)c1ccc(OCCN(C)C)cc1)c1ccccc1 [AFIMOXIFENE],–,–,–,–,–,–,–,< 7.00,8.92,7.43,< 7.00,8.90,87%,94%,3.62,–
Nc1ccc(-c2c(C(=O)c3ccc(OCCN4CC(C(=O)O)=CCC4=O)cc3)c3ccc(O)cc3[nH]c2=O)cc1,7.43,7.14,0.04 nM,40.7 nM,2.38,0.09,< 7.00,< 7.00,9.36,7.11,< 7.00,9.39,88%,91%,1.86,–
CC(CN1CCCC2CCCNC21)OCC(=O)N1NC2c3ccc(O)cc3OCC2c2ccc(O)cc21 (configuration not stated),6.77,–,–,–,–,–,–,–,–,–,–,–,–,–,–,–
Nc1ccc(-c2c(C(=O)c3ccc(OCCNS(=O)(=O)O)cc3)c3ccc(O)cc3oc2=O)cc1,9.41,7.10,0.08 nM,44.7 nM,2.36,0.05,< 7.00,< 7.00,9.35,7.12,< 7.00,9.27,91%,94%,1.78,–
CC(CN1CCCC2CCCNC21)OCC(=O)N1Nc2cc(O)ccc2C2COc3cc(O)ccc3C21 (configuration not stated),9.17,7.17,0.15 nM,37.7 nM,2.12,0.12,< 7.00,< 7.00,9.14,7.29,< 7.00,9.11,–,–,–,–
Cc1cc(N2Nc3c(c(=O)oc4cc(O)ccc34)-c3ccc(O)cc32)ccc1OCCN1CCC=C(C(=O)O)C1,6.84,7.34,32.3 nM,25.5 nM,-0.21,0.29,–,–,–,–,–,–,–,–,–,–
O=C(c1ccc(OCCN2CCCCC2)cc1)c1c(-c2ccc(O)cc2)sc2cc(O)ccc12 [RALOXIFENE],–,–,–,41.2 nM,–,0.08,–,–,9.05,7.03,–,9.03,93%,96%,–,2.37
Cc1cc(N2Nc3cc(O)ccc3-c3c2c2ccc(O)cc2oc3=O)ccc1OCCN1CCC=C(C(=O)O)C1,–,7.01,–,–,–,–,–,< 7.00,–,–,–,–,–,–,–,–
O=C(c1ccc(OCCN2C(=O)CCC2=O)cc1)c1c(-c2ccc(O)cc2)oc(=O)c2cc(O)ccc12,9.12,5.24,0.17 nM,32.2 nM,2.07,0.19,< 7.00,< 7.00,9.03,7.38,< 7.00,9.05,–,–,–,–
